In patent US20060047114A1, “Azabicyclic amine histamine-3 receptor antagonists” (Pfizer Inc, priority 2004, published 2006) one finds Ki data, which are given here for 14 compounds.

For this experiment, the target named is T1, rat histamine H3 receptors (Rattus norvegicus, UniProt Q9QYN8).
T1 construct: Frozen rat frontal brain or frozen human post-mortem frontal brain is homogenized; from tissue; host or cells: rat frontal brain membranes
T1 sequence (Q9QYN8 whole entry): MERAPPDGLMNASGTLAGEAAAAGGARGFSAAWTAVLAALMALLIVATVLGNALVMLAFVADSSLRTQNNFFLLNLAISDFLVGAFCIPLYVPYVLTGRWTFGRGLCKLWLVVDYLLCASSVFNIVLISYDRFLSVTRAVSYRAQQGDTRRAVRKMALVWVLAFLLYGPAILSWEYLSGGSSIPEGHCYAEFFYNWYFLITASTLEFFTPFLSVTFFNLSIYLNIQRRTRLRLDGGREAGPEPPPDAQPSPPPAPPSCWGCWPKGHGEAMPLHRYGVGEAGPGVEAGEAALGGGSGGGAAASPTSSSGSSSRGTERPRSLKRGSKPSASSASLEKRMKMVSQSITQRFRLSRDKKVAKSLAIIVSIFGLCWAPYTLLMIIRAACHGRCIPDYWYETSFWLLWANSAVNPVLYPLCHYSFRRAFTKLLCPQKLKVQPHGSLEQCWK
Nature of the experiment: Rat H3 binding (3H-N-methylhistamine displacement, frontal brain membranes). The following applies: radioligand 1 nM 3H-N-methylhistamine, 1-hour incubation, read-out: Rat H3 activity (Kj). The procedure:
The in vitro affinity of the compounds in the present invention at the rat or human histamine H3 receptors can be determined according to the following procedure. Frozen rat frontal brain or frozen human post-mortem frontal brain is homogenized in 20 volumes of cold 50 mM Tris HCl containing 2 mM MgCl2 (pH to 7.4 at 4° C.). The homogenate is then centrifuged at 45,000 G for 10 minutes. The supernatant is decanted and the membrane pellet re-suspended by Polytron in cold 50 mM Tris HCl containing 2 mM MgCl2 (pH to 7.4 at 4 degrees C.) and centrifuged again. The final pellet is re-suspended in 50 mM Tris HCl containing 2 mM MgCl2 (pH to 7.4 at 25 degrees C.) at a concentration of 12 mg/mL. Dilutions of compounds are made in 10% DMSO/50 mM Tris buffer (pH 7.4) (at 10× final concentration, so that the final DMSO concentration is 1%). Incubations are initiated by the addition of membranes (200 microliters) to 96 well V-bottom polypropylene plates containing 25 microliters of drug dilutions and 25 microliters of radioligand (1 nM final concentration ^3H-N-methylhistamine). After a 1-hour incubation, assay samples are rapidly filtered through Whatman GF/B filters and rinsed with ice-cold 50 mM Tris buffer (pH 7.4) using a Skatron cell harvester. Radioactivity is quantified using a BetaPlate scintillation counter.
`CC(=O)c1ccc(CN2C[C@@H]3[C@@H](COCCCN4CCCCC4)[C@@H]3C2)cc1` [Example 2, (1S,5R,6R)-1-{4-[6-(3-Piperidin-1-ylpropoxymethyl)-3-azabicyclo[3.1.0]hex-3-ylmethyl]-phenyl}-ethanone]: the Ki stood at 116 nM. As for `c1ccc(CCN2C[C@@H]3[C@@H](COCCCN4CCCCC4)[C@@H]3C2)cc1` [Example 3, (1S,5R,6R)-3-Phenethyl-6-(3-piperidin-1-ylpropoxymethyl)-3-azabicyclo[3.1.0]-hexane], the figure is 78 nM; as for `c1ccc(Oc2cccc(CN3C[C@@H]4[C@@H](COCCCN5CCCCC5)[C@@H]4C3)c2)cc1` [Example 14, (1S,5R,6R)-3-(3-phenoxybenzyl)-6-(3-piperidin-1-ylpropoxymethyl)-3-azabicyclo[3.1.0]hexane], 51 nM; as for `c1ccc(COc2cccc(CN3C[C@@H]4[C@@H](COCCCN5CCCCC5)[C@@H]4C3)c2)cc1` [Example 15, (1S,5R,6R)-3-(3-benzyloxybenzyl)-6-(3-piperidin-1-ylpropoxymethyl)-3-azabicyclo[3.1.0]hexane], 41 nM. In the case of `c1ccc(-c2ccc(CN3C[C@@H]4[C@@H](COCCCN5CCCCC5)[C@@H]4C3)cc2)cc1` [Example 17, (1S,5R,6R)-3-biphenyl-4-ylmethyl-6-(3-piperidin-1-ylpropoxymethyl)-3-azabicyclo[3.1.0]hexane], the Ki was determined as 32 nM. As for `c1ccc(Oc2ccc(CN3C[C@@H]4[C@@H](COCCCN5CCCCC5)[C@@H]4C3)cc2)cc1` [Example 30, (1S,5R,6R)-3-(4-phenoxybenzyl)-6-(3-piperidin-1-ylpropoxymethyl)-3-azabicyclo[3.1.0]hexane], the figure is 51 nM; as for `Fc1ccc(Oc2ccc(CN3C[C@@H]4[C@@H](COCCCN5CCCCC5)[C@@H]4C3)cc2)cc1` [Example 47, (1R,5S,6R)-3-[4-(4-fluorophenoxy)-benzyl]-6-(3-piperidin-1-ylpropoxymethyl)-3-azabicyclo[3.1.0]hexane], 43 nM. In the case of `CC(=O)Nc1ccc(CN2C[C@@H]3[C@@H](COCCCN4CCCCC4)[C@@H]3C2)cc1` [Example 49, N-{4-[(1R,5S,6R)-6-(3-piperidin-1-ylpropoxymethyl)-3-azabicyclo[3.1.0]hex-3-ylmethyl]-phenyl}-acetamide], the Ki is 45 nM. As for `O=C1NCCN1c1ccc(CN2C[C@@H]3[C@@H](COCCCN4CCCCC4)[C@@H]3C2)cc1` [Example 51, 1-{4-[(1R,5S,6R)-6-(3-piperidin-1-ylpropoxymethyl)-3-azabicyclo[3.1.0]hex-3-ylmethyl]-phenyl}-imidazolidin-2-one], the figure is 58 nM; as for `COc1ccc(-c2ccc(CN3C[C@@H]4[C@@H](COCCCN5CCCCC5)[C@@H]4C3)cc2)cc1` [Example 57, (1R,5S,6R)-3-(4′-methoxybiphenyl-4-ylmethyl)-6-(3-piperidin-1-ylpropoxymethyl)-3-azabicyclo[3.1.0]hexane], 30 nM. As for `c1cncc(-c2ccc(CN3C[C@@H]4[C@@H](COCCCN5CCCCC5)[C@@H]4C3)cc2)c1` [Example 67, (1R,5S,6R)-6-(3-piperidin-1-ylpropoxymethyl)-3-(4-pyridin-3-ylbenzyl)-3-azabicyclo[3.1.0]hexane], the figure is 63 nM; as for `FC(F)C(F)(F)Oc1ccc(CN2C[C@@H]3[C@@H](COCCCN4CCCCC4)[C@@H]3C2)cc1` [Example 69, (1R,5S,6R)-6-(3-piperidin-1-ylpropoxymethyl)-3-[4-(1,1,2,2-tetrafluoroethoxy)-benzyl]-3-azabicyclo[3.1.0]hexane], 53 nM. As for `CC(C)COc1ccc(CN2C[C@@H]3[C@@H](COCCCN4CCCCC4)[C@@H]3C2)cc1` [Example 70, (1R,5S,6R)-3-(4-isobutoxybenzyl)-6-(3-piperidin-1-ylpropoxymethyl)-3-azabicyclo[3.1.0]hexane], the figure is 69 nM. Take `c1ccc(CN2C[C@@H]3[C@@H](COCCCN4CCCCC4)[C@@H]3C2)cc1` [Int. 3, (1S,5R,6R)-3-Benzyl-6-(3-piperidin-1-ylpropoxymethyl)-3-azabicyclo[3.1.0]hexane]: the Ki amounted to 86 nM.
